Target: T1, human GOAT (Homo sapiens, UniProt Q96T53)
T1 construct: His; made in house; host or cells: Sf9 insect cells (baculovirus, pAN51 vector); microsomal membrane preparation
T1 sequence (Q96T53 1-435): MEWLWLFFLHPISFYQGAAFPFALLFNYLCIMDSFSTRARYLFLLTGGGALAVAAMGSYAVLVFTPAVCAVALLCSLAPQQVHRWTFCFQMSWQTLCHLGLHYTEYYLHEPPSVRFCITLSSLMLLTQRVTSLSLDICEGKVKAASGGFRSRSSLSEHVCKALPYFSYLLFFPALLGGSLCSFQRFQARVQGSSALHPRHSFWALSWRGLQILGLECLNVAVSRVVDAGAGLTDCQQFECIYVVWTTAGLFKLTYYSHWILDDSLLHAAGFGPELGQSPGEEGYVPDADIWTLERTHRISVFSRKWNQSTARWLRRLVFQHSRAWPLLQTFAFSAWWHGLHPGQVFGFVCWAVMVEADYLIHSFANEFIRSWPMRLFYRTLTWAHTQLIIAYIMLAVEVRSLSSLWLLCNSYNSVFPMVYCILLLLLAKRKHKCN
Assay: In vitro cell free human GOAT enzymatic assay
Format: biochemical
Settings: GOAT-His/sf9 membrane preparation
Description: Human GOAT gene (Accession number: NM_001100916) is subcloned to pAN51 baculoviral expression vector. Baculovirus stock is prepared following the Bac-to-Bac Protocol provided by the vendor, Invitrogen, California, USA. Five mililiters of human GOAT baculoviral stock are added to 500 mL Sf9 cells in HyQ SFX-Insect™ media (HyClone catalog number SH30278.02) at the density of 1 × 10^6 cells per milliliter in a 2 L Erlenmeyer flask. The flask with human GOAT gene infected Sf9 cells is put on a plate shaker at 120 rpm at 28 °C for 48 hours. After 48 hours incubation, cells are centrifuged at 1,000xg for 10 min at 4 °C. The cell pellets are collected and stored at -80 °C in a freezer until ready for further processing.
One gram cell pellets are suspended in 9 mL chilled homogenization buffer (50 mM Tris-HCl, 250 mM sucrose, adjusted to pH 7.5 and sterile filtered through 0.2 µm Millipore filter). The cell suspension is transferred to a Dounce glass homogenizer. Cell pellets are homogenized with 40 strokes on ice. The homogenate is centrifuged at 3,000 rpm in a Beckman swing bucket rotor at 4 °C for 10 min to remove unbroken cells. The supernatant is collected and centrifuged at 40,000 xg for 1 hour at 4 °C. The resulting membrane pellet is suspended in the homogenization buffer using a Dounce glass homogenizer and stored at -20 °C in the freezer for the assay. For long term storage of the human GOAT enzyme membrane preparation, the suspended membrane is stored in a -80 °C freezer.
Prepare test compounds in DMSO to make up a 0.2 mM stock solution. Serially dilute the stock solution in DMSO to obtain a ten-point dilution curve with final compound concentrations ranging from 10 µM to 0.5 nM in a 96-well round-bottom plate. Prepare enzyme and substrate solutions in assay buffer (0.02% TWEEN™-20 in 50 mM Tris, pH 7.5/250 mM sucrose/1 mg/mL BSA/10 mM EDTA). Add diluted compound (1 µL) to each well of row A to N of a corresponding low protein binding 384 well plate. Add human GOAT substrate mix (10 µL), consisting of human desacyl-ghrelin-biotin (CPC Scientific Inc., 6.0 µM final), octanoyl-coenzyme A (CoA) (Sigma, 60 µM final) and an AG specific antibody (WO 2006/091381)(1.0 µg/mL final), to the compounds. Add GOAT-His/sf9 enzyme preparation, that has been prepared in assay buffer (9 µL), to each well of the plate containing substrate and test compounds resulting in a final concentration of 0.01 µg/mL to initiate the reaction. Incubate the mixture for 1 hour at RT on a gently rotating oscillator. Add 4M guanidine hydrochloride (20 µL) to all wells, mix, and incubate for 3 hours to stop the reaction.
Prepare ELISA plates (STREPTAVIDIN SPECTRAPLATE™ 384, Perkin Elmer) by blocking with 2% Heat-Inactivated FBS in PBS (40 µL) (Invitrogen) blocking buffer for 3 hours. Aspirate the blocking buffer from ELISA plate and add blocking buffer (23 µL) to columns 1-24, rows A-N. Reserve rows O and P for the acylghrelin standard curve. Add the reaction mix (2 µL) to the ELISA plates. Prepare a 10 point standard curve (biotin-labeled octanoyl-ghrelin) by serial 2X dilution in blocking buffer containing 0.2M Guanidine hydrochloride starting at 2.5 pM. Incubate the reaction mixture or biotin-labeled AG standard in the ELISA plate overnight at 4 °C. The following day, wash the plate 3× with wash buffer (0.1% TWEEN™-20/PBS, 100 µL per well in each wash cycle). […] Read plates at 450 nm using an ENVISION® Multilabel plate reader. […]

| IC20 [nM] | Compound |
| --- | --- |
| 55.7 | Cc1nc(C(F)(F)F)nc(N)c1CCC1CCN(C(=O)[C@H](C)NC(=O)c2nccnc2Cl)CC1 [Example 15, N-[(1S)-2-[4-[2-[4-Amino-6-methyl-2-(trifluoromethyl)pyrimidin-5-yl]ethyl]-1-piperidyl]-1-methyl-2-oxo-ethyl]-3-chloro-pyrazine-2-carboxamide] |
| 420 | COc1ccccc1C(=O)N[C@@H](C)C(=O)N1CCC(CCc2c(C)nc(C(F)(F)F)nc2N)CC1 [Example 17, N-[(1S)-2-[4-[2-[4-Amino-6-methyl-2-(trifluoromethyl)pyrimidin-5-yl]ethyl]-1-piperidyl]-1-methyl-2-oxo-ethyl]-2-methoxy-benzamide] |
| 276 | Cc1nc(C(F)(F)F)nc(N)c1CCC1CCN(C(=O)[C@H](C)NC(=O)CO)CC1 [Example 18, N-[(1S)-2-[4-[2-[4-Amino-6-methyl-2-(trifluoromethyl)pyrimidin-5-yl]ethyl]-1-piperidyl]-1-methyl-2-oxo-ethyl]-2-hydroxy-acetamide] |
| 615 | COC(=O)N[C@@H](C)C(=O)N1CCC(CCc2c(C)nc(C(F)(F)F)nc2N)CC1 [Example 20, Methyl N-[(1S)-2-[4-[2-[4-amino-6-methyl-2-(trifluoromethyl)pyrimidin-5-yl]ethyl]-1-pipaidyl]-1-methyl-2-oxo-ethyl]carbamate] |
